Here are results for one compound from US11970504B1, “2-benzo-[3,4-b] quinolino-{b,g]indeno [1′,2′:3,4] fluoreno-[1,2-d] Oxonine-5,11,16,21-tetraone as an antimicrobial compound” (KING FAISAL UNIVERSITY, priority 2023, dated 2024).

Data set [1] deals with Escherichia coli. In words: Antimicrobial screening by agar dilution, Escherichia coli. It is filed as cell-based. Conditions: after 10, 20, 40 and 60 minutes at all dilutions 1:100, 1:200, 1:400, 1:800. Here is the method:
(§1) The antibacterial properties of the synthesized compound 2-benzo-[3,4-b]quinolino-[b,g]indeno[1′,2′:3,4]fluoreno-[1,2-d]oxonine-5,11,16,21-tetraone were studied by the method of agar dilution. Test solutions of each compound was prepared in concentration of 1% using dimethylformamide as a solvent then they are diluted in physiological solution to obtain the final experimental dilutions 1:100, 1:200, 1:400, 1:800. The effect of these substances are compared with furacillin in a controllable study. The testing microbes used were gram positive bacteria Staphylococcus aureus, gram negative bacteria Pseudomonas aeruginosa and Escherichia co/i and Candida albicans fungus. The experiments used for this survey were meat-pentonlu agar (EPA) for cultivation of bacteria and Saburo environment for the fungus. Each experiment used 1 mL of test solution on each plate […]. Two drops of emulsified with microbes feel were added. All experimental samples were taken from the agar after 10, 20, 40, 60 minutes in the environment on the basis of Patrk planted. The bacteria were cultivated at a temperature of 37° C. for 1 day and the mushroom was kept in a thermostat for […] at a temperature of 28° C. Then results were checked.

In data set [2] the test system is Candida albicans. Put plainly: Antimicrobial screening by agar dilution, Candida albicans. Type of data set: cell-based. Conditions: after 10, 20, 40 and 60 minutes at all dilutions 1:100, 1:200, 1:400, 1:800. The protocol:
as §1

For data set [3], the system named is Pseudomonas aeruginosa. Put plainly: Antimicrobial screening by agar dilution, Pseudomonas aeruginosa. It is filed as cell-based. Conditions: after 10, 20, 40 and 60 minutes at all dilutions 1:100, 1:200, 1:400, 1:800. The protocol:
as §1

Data set [4] relates to Staphylococcus aureus. In words: Antimicrobial screening by agar dilution, Staphylococcus aureus. Type of data set: cell-based. Conditions: after 10, 20, 40 and 60 minutes at all dilutions 1:100, 1:200, 1:400, 1:800. Here is the method: as §1

The structures appear in SMILES notation.

Turning to `O=C1Oc2nc3ccccc3cc2-c2c(c3c4ccccc4c(=O)c3c3c2c(=O)c2ccccc23)C(=O)c2ccccc21` [2-benzo-[3,4-b]quinolino-[b,g]indeno[1′,2′:3,4]fluoreno-[1,2-d]oxonine-5,11,16,21-tetraone], the melting point is 251 °C. For the same compound, the inhibition activity result in data set [1] is “highest inhibition activity”. Further, the inhibition activity result in data set [2] is recorded as “highest inhibition activity”. In addition, the inhibition activity entry in data set [3] was “highest inhibition activity”. The inhibition activity entry in data set [4] is given as “highest inhibition activity”.
